From paper PMC2586124 (Journal of natural products, 2008)

Target: HIV-1 RNase H (Human immunodeficiency virus type 1 group M subtype B, UniProt P04585)
Assay: RNase H FRET assay, HIV-1 RNase H
Type: biochemical
Settings: IC50, HIV-1 RNase H, in vitro

O=C(OC[C@H]1O[C@@H](Oc2ccc(O)cc2)[C@H](OC(=O)c2cc(O)c(O)c(O)c2)[C@@H](O)[C@@H]1O)c1ccc(O)cc1 [hyemaloside B (2), hyemaloside B]
IC50: > 18.3 µM
